Like-named read-outs stand apart in the source and are kept apart here.
Key:
[1] = test system: Vero cells; test: Endosomal pH change test with acridine orange; format: cell-based; settings: 1 µM for 1 h
Method: This image-based experiment was performed according to our previous report with some modifications. Vero cells were cultured in a glass bottom 35 mm dish (6 × 10^4 cells per well) overnight. Each compound, including 1 µM UNC3230, apilimod or UNI418, was added to Vero cells for 1 h at 37 °C. The cells were stained with acridine orange (Sigma‒Aldrich, A9231) at a final concentration of 4 µg/mL for 30 min. After washing with PBS twice, images were acquired using a confocal microscope (Zeiss LSM 700, Baden-Württemberg, Germany) at two emission wavelengths, 493 to 560 nm and 590 to 720 nm, with excitation at 488 nm. The green-to-red ratio or vacuole size was measured using the built-in software ZEN 3.1.
Fig. 3 UNI418 negatively affects autophagosome-lysosome fusion and endosome acidification. a Live-cell imaging of HEK293T cells stably expressing mCherry-GFP-LC3 treated with 0.5 μM UNI418 at the indicated time points; the images within the white rectangular boxes are magnified on the right side. Scale bar, 30 µm. The number (b) and area (c) of GFP-positive dots per cell were quantified by ImageXpress. d Immunofluorescence images illustrating the inhibition of endolysosomal acidification by UNI418. Vero cells were treated with the mock control or 1 µM UNC3230, apilimod or UNI418 for 1 h at 37 °C. Acridine orange (4 µg/mL) was added to the compound-treated live cells, followed by additional incubation for 30 min. The cells were analyzed by confocal microscopy using two emission wavelengths at 493–560 (green) and 590–720 nm (red) after excitation at 488 nm. Merged images are presented, and images within the white rectangular boxes are magnified on the right side. Original magnification, 630×. The green-to-red fluorescence intensity ratio (e) and the area of fluorescent spots (f) were quantified. b, c, e, f The data are presented as the means ± SEMs, with a minimum of 200 spots. Statistical significance was determined by Student’s t test; *p < 0.05, **p < 0.01, ***p < 0.001 and ****p < 0.0001. n.s., not significant.

[2] = test system: SARS-CoV-2; test: microbe, parasite or virus in culture; format: cell-based, SARS-CoV-2 (hCoV-19/Korea/KCDC06/2020); settings: for EC50: read-out: EC50 (reducing number of spike-positive cells by 50%)
[3] = test system: RPE1 cells; test: Western blot of autophagy-monitoring proteins SQSTM1/p62 and LC3-II; format: cell-based
Description: Fig. 2 UNI418 inhibits autophagy. a Western blot analysis of p62, LC3B-I, LC3B-II and GAPDH in the presence of UNC3230, apilimod and UNI418. b Immunofluorescence staining with LC3B (green) and p62 (red) antibodies upon treatment with UNC3230, apilimod and UNI418, and images within the white rectangular boxes are magnified on the right side. Scale bar, 20 µm. c The area of fluorescence intensity from immunofluorescence images (b) was quantified after UNC3230, apilimod and UNI418 treatments. d, e Quantification of autophagic flux under normal conditions and under HBSS-induced starvation conditions with or without UNI418 treatment. RPE1 cells were treated with UNI418 (0.5 µM or 1 µM) for 2 h in the presence or absence of a lysosomal inhibitor (bafilomycin A1, BFA). Representative Western blot images (d) and the graph showing the average of 4 independent experiments (e). The error bars indicate the S.D. Statistical analysis was performed using two-way ANOVA; *p < 0.05, ***p < 0.001.
Supplementary Materials and Methods
The whole cell extracts were prepared by lysis of harvested cells with M -PER Mammalian protein extraction reagent (Thermo Fisher Scientific). The protein concentrations were determined by Bradford protein assay (Bio- Rad). The 10 to 20 μ g of prepared proteins were separated by the SDS-PAGE and transferred to PVDF membrane, which were then blocked in 5% skim milk for 30 minutes at room temperature. […] The images were obtained and quantified by Fusion solo ChemiDoc system (Vilber).
Autophagic flux assay was analyzed essentially as previously described1,2.
Briefly, RPE1 cells were treated with UNI418 (0, 0.5, or 1 µM) for 2 h with/without bafilomycin A1 to inhibit lysosomal degradation under normal growth media or HBSS. […] The LC3- II bands were quantified using Fusion Solo ChemiDoc system (Vilber) and normalized to GAPDH bands.
Autophagy flux was calculated by subsidizing the lysosomal inhibitor-treated cells to non- treatment cells in both normal growth media and HBSS-induced starvation with 0, 0.5, or 1 µM UNI418. […]

[4] = test system: RPE1 cells; test: Vacuolization analysis; format: cell-based
Method: CUGAUCAAGAU G A -3 and PIKfyve#2 siRNA 5'-
[…] -3'. siRNA oligonucleotides were purchased from Genolution, Sigma- Aldrich and Integrated DNA Technologies.
These siRNAs were transfected into the cell using lipofectamine RNAiMAX (Invitrogen, 13778150) following manufacturer ’s protocol.
RPE1 cells were treated with UNI418 at indicated concentration for over-night.
After that, the image was taken by EVOS M5000 (Thermo Fisher Scientific).
RPE1 cells were treated with UNI418 at the different concentration during the time. Live cell images were taken by Lionheart LX Automated Microscope and analyzed in Gen5 (Agilent).
RPE1 cells were treated with indicated doses of UNI418 overnight. To analyze PIP2 level by flow cytometry, trypsinized cells were fixed with 4% paraformaldehyde for 10 min at room temperature. The fixed cells were permeabilized with 0.2% PBS-T (Triton X-100) for 5min and blocked with 5% Bovine Serum Albumin (BSA), and stained with the primary antibody for 4h at 4°C. Cells were washed three times with 1% BSA-PBS and incubated with the fluorescence- conjugated secondary antibody Alexa Fluor® 488 AffiniPure Goat Anti-Mouse IgG (H+L) (Jackson ImmunoResearch,111- 545- 003) for 1h at room temperature analyzed by BD Accuri C6 Plus flow cytometer (BD Biosciences). […]

[5] = test system: Wuhan-Hu-1 spike-pseudotyped virus; test: microbe, parasite or virus in culture; format: cell-based, SARS-CoV-2; settings: read-out: concentration that inhibited spike-mediated viral entry by 50% compared to maximal inhibition
[6] = test system: cathepsin D; test: Cathepsin D maturation by Western blot; format: cell-based
[7] = test system: ACE2-mediated endocytosis in HEK293T cells; format: cell-based; settings: 20 μg/mL spike-RBD, 2 h
[8] = test system: Vero cells
[9] = in vitro; settings: African green monkey

## NC(=O)c1nc(Nc2ccccc2)sc1NC(=O)C1CCCCC1 [UNC3230]
[1]
  green-to-red ratio of fluorescent spots relative to mock-treated sample: 2.6 fold
[2]
  EC50: 95.1 µM
[3]
  accumulation of SQSTM1/p62 and LC3-II: did not have the same effect
[4]
  vacuolization: did not induce vacuoles
[5]
  IC50: 4 µM
[6]
  proteolytic cleavage (maturation) of cathepsin D: did not
[7]; 0.5 μM compound
  ACE2-mediated endocytosis triggered by spike-RBD: successfully inhibited
[8]; Vero cells, Day 2
  cytotoxicity on Day 2: highly toxic
[8]; mock-infected Vero cells, MTT, Day 1
  CC50: > 100 µM

## O=C(N/N=C/c1ccc(O)c(O)c1)c1cc2ccccc2cc1O [dynasore]
[7]; 0.1 mM dynasore
  ACE2-mediated endocytosis triggered by spike-RBD: successfully inhibited

## CCC(CC)COC(=O)[C@H](C)N[P@](=O)(OC[C@H]1O[C@@](C#N)(c2ccc3c(N)ncnn23)[C@H](O)[C@@H]1O)Oc1ccccc1 [remdesivir]
[2]; Severe acute respiratory syndrome coronavirus 2, Vero, 48 h
  EC50: 8.9 µM
[2]; Vero cells, Day 2
  selectivity index (SI), ratio of CC50 to EC50: > 11.2
[9]
  CC50: > 100 µM

— article PMC11372076, “A dual inhibitor of PIP5K1C and PIKfyve prevents SARS-CoV-2 entry into cells” (Experimental & Molecular Medicine, 2024)
